What was measured:
Format in all cases: in vivo
Blattella germanica = assay: Test Example 1: spray knockdown test on Blattella germanica; details: 0.25 h, 10 vermin, oil solution 2.0% w/v, 1.5 ml sprayed, within 15 minutes, read-out: knockdown ratio of test vermin within 15 minutes
Procedure: (§1) A formulation containing each of the present amide compounds (1), (2), (4), (8), (12), (13), (14), (15), (16), (18), (20), (24), (25), (27) and (28) prepared in accordance with Formulation Example 7 was diluted with an isopropyl alcohol/deodorized kerosine=1/9 mixed liquid so that the active ingredient concentration became 2.0% w/v, to prepare a drug solution for a test.
Ten vermin of Blattella germanica (male female each five vermin) were allowed to release in a container for a test in which a butter was applied on an inner wall (diameter 8.75 cm, height 7.5 cm, bottom face covered with 16 mesh wire net), and the container was arranged on a bottom of a chamber for a test (bottom surface: 46 cm×46 cm, height: 70 cm). From a height of 60 cm from an upper side of the container, 1.5 ml of the drug solution for a test was sprayed using a spray gun (spraying pressure 0.42 kg/cm^2). Thirty seconds after spraying, the container was taken out from the chamber for a test, the number of vermin which had been knocked down was counted for 15 minutes with time, and a knockdown ratio was obtained. The knockdown ratio was calculated by the following expression.
(§2) Knockdown ratio (%)=(number of knocked down vermin/number of test vermin)×100

Culexpipienspallens = assay: Test Example 3: spray knockdown test on Culexpipienspallens imagoes; details: 0.25 h, oil solution 0.1% w/v, 0.5 ml sprayed, within 15 minutes, read-out: knockdown ratio of the test vermin within 15 minutes
Procedure: as §1, with “(4), (5), (6), (7),” for “(4),”, “(8), (9), (10),” for “(8),”, “(19), (21), (22),” for “(20),”, “(25), (26) and” for “(25),”, “(27)” for “(27) and (28)”, “0.1%” for “2.0%”
Ten imagoes of Culexpipienspallens were allowed to release in a polyethylene cup (bottom surface diameter 10.6 cm), and the cup was covered with a 16 mesh nylon gauze. The polyethylene cup was arranged on a bottom of a chamber for a test (bottom surface: 46 cm×46 cm, height: 70 cm). From a height of 30 cm from an upper surface of the polyethylene cup, 0.5 ml of the drug solution for a test was sprayed using a spray gun (spraying pressure 0.4 kg/cm^2). After spraying, the cup was immediately taken out from the chamber for a test, the number of knocked down vermin was counted for 15 minutes with time, and a knockdown ratio was obtained. The knockdown ratio was calculated by the following expression.
as §2

Adoxophyesoranafasciata = assay: Test Example 8: apple seedling spray test on first instar larvae of Adoxophyesoranafasciata; details: first instar larvae of Adoxophyesoranafasciata on apple seedlings; 500 ppm spray, 20 ml; seven days after spraying
Procedure: A formulation of the present amide compound (9) prepared in accordance with Formulation Example 15 was diluted with water so that the active ingredient concentration became 500 ppm, to prepare a spray solution for a test. On the other hand, 20 ml of the spray solution for a test was spraying-treated on each of apple seedlings (28 days after seeding, tree height about 15 cm) planted in a plastic cup. After the drug solution which had spray-treated on the apple was air-dried to an extent that the drug solution was dried, about 30 first instar larvae of Adoxophyesoranafasciata were released. Seven days after spraying, the number of live vermin on an apple seedling was investigated, and a controlling value was obtained according to the following expression. Controlling value (%)={1−(Cb×Tai)/(Cai×Tb)}×100 In addition, letters in the expression indicate the following meanings. Cb: Number of vermin before treatment of non-treated section Cai: Number of vermin at observation of non-treated section Tb: Number of vermin before treatment of treated-section Tai: Number of vermin at observation of treated-section

Spodopteralitura = assay: Test Example 7: cabbage spray test on fourth instar larvae of Spodopteralitura; details: 500 ppm spray, 20 ml/cup, after 4 days
Procedure: A formulation containing the present amide compound (25) prepared in accordance with Formulation Example 15 was diluted with water so that active ingredient concentration became 500 ppm, to preparer a spray solution for a test. On the other hand, a cabbage was planted in a polyethylene cup, and grown until a third true leaf or a fourth true leaf developed. On the cabbage, the spray solution for a test was sprayed at a rate of 20 ml/cup. After the drug solution which had been spraying-treated on the cabbage was dried, ten fourth instar larvae of Spodopteralitura were parasitized. The number of live vermin of Spodopteralitura on a cabbage leaf was investigated after 4 days, and a controlling value was obtained according to the following expression. Controlling value (%)={1−(Cb×Tai)/(Cai×Tb)}×100 In addition, letters in the equation represent the following meanings. Cb: Number of vermin before treatment of non-treated section Cai: Number of vermin at observation of non-treated section Tb: Number of vermin before treatment of treated-section Tai: Number of vermin at observation of treated-section

## O=C(NCC1CCOC1)C1=COC(COCc2ccccc2)CC1 (stereo not drawn)
Blattella germanica
  pest or weed control at 2 % strength: ≥ 80%

## CCCCC1CC(C(=O)NCC2CCOC2)=NO1 (stereo not drawn) [present amide compound (1), N-(tetrahydrofuran-3-ylmethyl)-5-butyl-4,5-dihydroisoxazole-3-carboxamide]
Blattella germanica
  pest or weed control at 2 % strength: ≥ 80%
Culexpipienspallens
  pest or weed control at 0.1 % strength: ≥ 80%

## CCCCCC1CC(C(=O)NCC2CCOC2)=NO1 (stereo not drawn) [present amide compound (2), N-(tetrahydrofuran-3-ylmethyl)-5-pentyl-4,5-dihydroisoxazole-3-carboxyamide]
Blattella germanica
  pest or weed control at 2 % strength: ≥ 80%
Culexpipienspallens
  pest or weed control at 0.1 % strength: ≥ 80%

## O=C(NCC1CCOC1)C1=NOC(CCc2ccccc2)C1 (stereo not drawn) [present amide compound (4), N-(tetrahydrofuran-3-ylmethyl)-5-phenethyl-4,5-dihydroisoxazole-3-carboxamide]
Blattella germanica
  pest or weed control at 2 % strength: ≥ 80%
Culexpipienspallens
  pest or weed control at 0.1 % strength: ≥ 80%

## O=C(NCC1CCOC1)C1=NOC(COc2ccccc2)C1 (stereo not drawn) [present amide compound (5), N-(tetrahydrofran-3-ylmethyl)-5-(phenoxymethyl)-4,5-dihydro isoxazole-3-carboxamide]
Culexpipienspallens
  pest or weed control at 0.1 % strength: ≥ 80%

## O=C(NCC1CCOC1)C1=NOC(CCOc2ccccc2)C1 (stereo not drawn) [present amide compound (6), N-(tetrahydrofran-3-ylmethyl)-5-(2-phenoxyethyl)-4,5-dihydroisoxazole-3-carboxamide]
Culexpipienspallens
  pest or weed control at 0.1 % strength: ≥ 80%

## O=C(NCC1CCOC1)C1=NOC(CCCOc2ccccc2)C1 (stereo not drawn) [present amide compound (7), N-(tetrahydrofran-3-ylmethyl)-5-(3-phenoxypropyl)-4,5-dihydroisoxazole-3-carboxamide]
Culexpipienspallens
  pest or weed control at 0.1 % strength: ≥ 80%

## O=C(NCC1CCOC1)C1=NOC(CCCCOc2ccccc2)C1 (stereo not drawn) [present amide compound (8), N-(tetrahydrofuran-3-ylmethyl)-5-(4-phenoxybutyl)-4,5-dihydroisoxazole-3-carboxamide]
Blattella germanica
  pest or weed control at 2 % strength: ≥ 80%
Culexpipienspallens
  pest or weed control at 0.1 % strength: ≥ 80%

## O=C(NCC1CCOC1)C1=NOC(CCCCCOc2ccccc2)C1 (stereo not drawn) [present amide compound (9), N-(tetrahydrofuran-3-ylmethyl)-5-(5-phenoxypentyl)-4,5-dihydroisoxazole-3-carboxamide]
Culexpipienspallens
  pest or weed control at 0.1 % strength: ≥ 80%
Adoxophyesoranafasciata
  controlling value: 100%

## O=C(NCC1CCOC1)C1=NOC(CCCCCCOc2ccccc2)C1 (stereo not drawn) [present amide compound (10), N-(tetrahydrofuran-3-ylmethyl)-5-(6-phenoxyhexyl)-4,5-dihydroisoxazole-3-carboxamide]
Culexpipienspallens
  pest or weed control at 0.1 % strength: ≥ 80%

## O=C(NCC1CCOC1)C1=NOC(CCOCc2ccccc2)C1 (stereo not drawn) [present amide compound (12), N-(tetrahydrofuran-3-ylmethyl)-5-(2-benzyloxyethyl)-4,5-dihydroisoxazole-3-carboxamide]
Blattella germanica
  pest or weed control at 2 % strength: ≥ 80%
Culexpipienspallens
  pest or weed control at 0.1 % strength: ≥ 80%

## O=C(NCC1CCOC1)C1=NOC(CCCOCc2ccccc2)C1 (stereo not drawn) [present amide compound (13), N-(tetrahydrofuran-3-ylmethyl)-5-(3-benzyloxypropyl)-4,5-dihydroisoxazole-3-carboxamide]
Blattella germanica
  pest or weed control at 2 % strength: ≥ 80%
Culexpipienspallens
  pest or weed control at 0.1 % strength: ≥ 80%

## O=C(NCC1CCOC1)C1=NOC(CCCCOCc2ccccc2)C1 (stereo not drawn) [present amide compound (14), N-(tetrahydrofuran-3-ylmethyl)-5-(4-benzyloxybutyl)-4,5-dihydroisoxazole-3-carboxamide]
Blattella germanica
  pest or weed control at 2 % strength: ≥ 80%
Culexpipienspallens
  pest or weed control at 0.1 % strength: ≥ 80%

## O=C(NCC1CCOC1)C1=NOC(CCCCCOCc2ccccc2)C1 (stereo not drawn) [present amide compound (15), N-(tetrahydrofuran-3-ylmethyl)-5-(5-benzyloxypentyl)-4,5-dihydroisoxazole-3-carboxamide]
Blattella germanica
  pest or weed control at 2 % strength: ≥ 80%
Culexpipienspallens
  pest or weed control at 0.1 % strength: ≥ 80%

## O=C(NCC1CCOC1)C1=NOC(CCCCCCOCc2ccccc2)C1 (stereo not drawn) [present amide compound (16), N-(tetrahydrofuran-3-ylmethyl)-5-(6-benzyloxyhexyl)-4,5-dihydroisoxazole-3-carboxamide]
Blattella germanica
  pest or weed control at 2 % strength: ≥ 80%
Culexpipienspallens
  pest or weed control at 0.1 % strength: ≥ 80%

## O=C(NCC1CCOC1)C1=NOC(CCCOCCc2ccccc2)C1 (stereo not drawn) [present amide compound (18), N-(tetrahydrofuran-3-ylmethyl)-5-(3-phenethyloxypropyl)-4,5-dihydroisoxazole-3-carboxamide]
Blattella germanica
  pest or weed control at 2 % strength: ≥ 80%
Culexpipienspallens
  pest or weed control at 0.1 % strength: ≥ 80%

## O=C(NCC1CCOC1)C1=NOC(COc2ccc3ccccc3c2)C1 (stereo not drawn) [present amide compound (19), N-(tetrahydrofuran-3-ylmethyl)-5-(2-naphthyloxymethyl)-4,5-dihydroisoxazole-3-carboxamide]
Culexpipienspallens
  pest or weed control at 0.1 % strength: ≥ 80%

## O=C(NCC1CCOC1)C1=NOC(COCc2ccc3ccccc3c2)C1 (stereo not drawn) [present amide compound (20), N-(tetrahydrofuran-3-ylmethyl)-5-(2-naphthylmethyloxymethyl)-4,5-dihydroisoxazole-3-carboxamide]
Blattella germanica
  pest or weed control at 2 % strength: ≥ 80%

## O=C(NCC1CCOC1)C1=NOC(CCCOCc2ccc3ccccc3c2)C1 (stereo not drawn) [present amide compound (21), N-(tetrahydrofuran-3-ylmethyl)-5-(2-naphthylmethyloxypropyl)-4,5-dihydroisoxazole-3-carboxamide]
Culexpipienspallens
  pest or weed control at 0.1 % strength: ≥ 80%

## CC1C(C(=O)NCC2CCOC2)=NOC1COc1ccccc1 (stereo not drawn) [present amide compound (22), N-(tetrahydrofuran-3-ylmethyl)-4-methyl-5-phenoxymethyl-4,5-dihydroisoxazole-3-carboxamide]
Culexpipienspallens
  pest or weed control at 0.1 % strength: ≥ 80%

## O=C(NCC1CCOC1)C1=NOC(COc2ccccc2)CC1 (stereo not drawn) [present amide compound (24), N-(tetrahydrofuran-3-ylmethyl)-6-phenoxymethyl-5,6-dihydro-4H-[1,2]oxazine-3-carboxamide]
Blattella germanica
  pest or weed control at 2 % strength: ≥ 80%
Culexpipienspallens
  pest or weed control at 0.1 % strength: ≥ 80%

## O=C(NCC1CCOC1)C1=NOC(COc2cccc(Cl)c2)CC1 (stereo not drawn) [present amide compound (25), N-(tetrahydrofuran-3-ylmethyl)-6-(3-chloro-phenoxymethyl)-5,6-dihydro-4H-[1,2]oxazine-3-carboxamide]
Blattella germanica
  pest or weed control at 2 % strength: ≥ 80%
Culexpipienspallens
  pest or weed control at 0.1 % strength: ≥ 80%
Spodopteralitura
  controlling value: ≥ 80%

## O=C(NCC1CCOC1)C1=NOC(COCc2ccccc2)CC1 (stereo not drawn) [present amide compound (26), N-(tetrahydrofuran-3-ylmethyl)-6-benzyloxymethyl-5,6-dihydro-4H-[1,2]oxazine-3-carboxamide]
Culexpipienspallens
  pest or weed control at 0.1 % strength: ≥ 80%

## O=C(NCC1CCOC1)C1=COC(COc2ccccc2)CC1 (stereo not drawn) [present amide compound (27), N-(tetrahydrofuran-3-ylmethyl)-6-phenoxymethyl-5,6-dihydro-4H-pyrane-3-carboxamide]
Blattella germanica
  pest or weed control at 2 % strength: ≥ 80%
Culexpipienspallens
  pest or weed control at 0.1 % strength: ≥ 80%

Source: patent publication US20170215424A1 (SUMITOMO CHEMICAL COMPANY, LIMITED, priority 2014, published 2017)
